Laboratory results from patent publication US6403343B2, “Method of producing a taxane-type diterpene and a method of obtaining cultured cells which produce the taxane-type dilterpene at a high rate” (Mitsui Chemicals, Inc., priority 1993, dated 2002).

Tests used:
Type in all cases: cell-based
[1] = tested on: cultured cells of Taxus baccata LINN, layer of 1.07 g/ml or less; experiment: Same culture using cells of the specific gravity layer of 1.07 g/ml or less (Ficoll), jasmonic acids added; conditions: 250 μM added on 14th day, 7 more days; cells of layer of 1.07 g/ml or less
Protocol: (§1) The cells with accelerated growth rate obtained by the method of Example 1 were fractionated firstly by a stainless steel mesh and cell clusters having the size of 250-840 μm were obtained. A medium having a specific gravity of 1.07 (g/ml) was produced by the use of Ficoll and the above-mentioned cells were layered over it and centrifuged at 700 rpm for 6 minutes. The cells were fractionated into two layers according to the difference of the specific gravity. The cells contained in the layer of 1.07 g/ml or less were fractionated and washed with 2% sucrose solution three times or more, to wash off Ficoll. After the washing, 1 g (fresh weight) of the cells was transferred to an Erlenmeyer flask containing 20 ml of liquid Woody Plant Medium and shake culture was carried out at 25° C. for 14 days. […] After completing the culture, the procedure of Example 1 was carried out.
as §1, with “growth rates” for “growth rate”, “Example 8” for “Example 1”, “was inoculated” for “was transferred”
as §1, with “Example 15” for “Example 1”, “was inoculated” for “was transferred”

[2] = tested on: cultured cells of Taxus brevifolia NUTT; experiment: Taxane yield, Taxus brevifolia cultured cells with jasmonic acids added; conditions: 250 μM added on 14th day, 7 more days
Protocol: After completing the culture, the procedure of Example 1 was carried out.
After completing the culture, the procedure of Example 8 was carried out.
After completing the culture, the procedure of Example 15 was carried out.

[3] = tested on: cultured cells of Taxus baccata LINN; experiment: Taxane-type diterpene yield and cell yield, shake culture of Taxus baccata cells with a jasmonic acid (or jasmone) added
[4] = tested on: cultured cells of T. media; experiment: Taxane yield, T. media cultured cells with jasmonic acids added; conditions: 250 μM added on 14th day, 7 more days
Protocol: The procedure of Example 6 was carried out except that cultured cells of T. media were used.
The procedure of Example 13 was carried out except that cultured cells of T. media were used.
The procedure of Example 22 was carried out except that cultured cells of T. media were used.

[5] = tested on: cultured cells of Taxus baccata LINN; experiment: Taxane-type diterpenes in the culture medium after adding 100 μM methyl jasmonate (FIG. 1, FIG. 2); conditions: 7th day after the addition
Protocol: The analytical results of taxane-type diterpenes existed in the culture medium of Example 15 prior to the addition of 100 μM of methyl jasmonate, on the third day after the addition, and on the 7th day after the addition, are shown in FIG. 1 and FIG. 2 On the 7th day of the culture, about half of the taxol and about 70% of the baccatin III were leaked in the medium.
The procedure of Example 20 was carried out except that the methyl ester of jasmonic acid was not added.

[6] = 0.01 μM added on 14th day, 7 more days
[7] = 0.1 μM added on 14th day, 7 more days
[8] = 1 μM added on 14th day, 7 more days
[9] = 10 μM added on 14th day, 7 more days
[10] = 25 μM added 4 times every two days from 7th day, total 100 μM
[11] = 100 μM added on 7th day, 14 more days
[12] = 100 μM added on 14th day, 7 more days
[13] = 100 μM added on first day, 20 more days
[14] = 250 μM added on 14th day, 7 more days
[15] = 500 μM added on 14th day, 7 more days
[16] = 1000 μM added on 14th day, 7 more days
[17] = 50 μM added on 14th day, 7 more days

CC/C=C\C[C@H]1[C@@H](CC(=O)OC)CC[C@@H]1O [methyl cucurbate]
cell yield [1]: 9.7 g/L | yield of baccatin III [1]: 22.2 mg/L | yield of cephalomannine [1]: 3.8 mg/L | yield of taxol [1]: 29.7 mg/L | cell yield [2]: 11.0 g/L | yield of baccatin III [2]: 1.2 mg/L | yield of cephalomannine [2]: 0.3 mg/L | yield of taxol [2]: 1.3 mg/L | cell yield [3, 6]: 11.3 g/L | yield of baccatin III [3, 6]: 0.3 mg/L | yield of cephalomannine [3, 6]: 2.6 mg/L | yield of taxol [3, 6]: 4.3 mg/L | cell yield [3, 7]: 11.1 g/L | yield of baccatin III [3, 7]: 0.3 mg/L | yield of cephalomannine [3, 7]: 3.1 mg/L | yield of taxol [3, 7]: 5.4 mg/L | cell yield [3, 8]: 10.4 g/L | yield of baccatin III [3, 8]: 0.3 mg/L | yield of cephalomannine [3, 8]: 3.3 mg/L | yield of taxol [3, 8]: 6.7 mg/L | cell yield [3, 9]: 10.4 g/L | yield of baccatin III [3, 9]: 0.5 mg/L | yield of cephalomannine [3, 9]: 4.0 mg/L | yield of taxol [3, 9]: 11.3 mg/L | cell yield [3, 10]: 10.5 g/L | yield of baccatin III [3, 10]: 14.6 mg/L | yield of cephalomannine [3, 10]: 4.1 mg/L | yield of taxol [3, 10]: 18.2 mg/L | cell yield [3, 11]: 9.5 g/L | yield of baccatin III [3, 11]: 8.4 mg/L | yield of cephalomannine [3, 11]: 4.1 mg/L | yield of taxol [3, 11]: 16.8 mg/L | cell yield [3, 12]: 9.8 g/L | yield of baccatin III [3, 12]: 7.2 mg/L | yield of cephalomannine [3, 12]: 4.4 mg/L | yield of taxol [3, 12]: 15.7 mg/L | cell yield [3, 13]: 6.1 g/L | yield of baccatin III [3, 13]: 0.8 mg/L | yield of cephalomannine [3, 13]: 2.8 mg/L | yield of taxol [3, 13]: 3.9 mg/L | cell yield [3, 14]: 9.6 g/L | yield of baccatin III [3, 14]: 10.6 mg/L | yield of cephalomannine [3, 14]: 5.3 mg/L | yield of taxol [3, 14]: 17.7 mg/L | cell yield [3, 15]: 9.3 g/L | yield of baccatin III [3, 15]: 12.0 mg/L | yield of cephalomannine [3, 15]: 3.0 mg/L | yield of taxol [3, 15]: 13.1 mg/L | cell yield [3, 16]: 5.7 g/L | yield of baccatin III [3, 16]: 1.2 mg/L | yield of cephalomannine [3, 16]: 2.8 mg/L | yield of taxol [3, 16]: 4.2 mg/L | cell yield [4]: 12.3 g/L | yield of baccatin III [4]: 5.2 mg/L | yield of cephalomannine [4]: 0.2 mg/L | yield of taxol [4]: 3.9 mg/L

CC/C=C\CC1C(=O)CCC1CC(=O)OC (stereo not shown) [methyl jasmonate]
cell yield [1]: 10.2 g/L | yield of baccatin III [1]: 18.7 mg/L | yield of cephalomannine [1]: 3.2 mg/L | yield of taxol [1]: 43.1 mg/L | cell yield [3, 6]: 12.2 g/L | yield of baccatin III [3, 6]: 0.3 mg/L | yield of cephalomannine [3, 6]: 1.6 mg/L | yield of taxol [3, 6]: 3.2 mg/L | cell yield [3, 7]: 12.1 g/L | yield of baccatin III [3, 7]: 0.3 mg/L | yield of cephalomannine [3, 7]: 1.6 mg/L | yield of taxol [3, 7]: 4.2 mg/L | cell yield [3, 8]: 11.3 g/L | yield of baccatin III [3, 8]: 0.4 mg/L | yield of cephalomannine [3, 8]: 1.8 mg/L | yield of taxol [3, 8]: 4.9 mg/L | cell yield [3, 9]: 11.3 g/L | yield of baccatin III [3, 9]: 0.7 mg/L | yield of cephalomannine [3, 9]: 2.1 mg/L | yield of taxol [3, 9]: 10.8 mg/L | cell yield [3, 10]: 10.7 g/L | yield of baccatin III [3, 10]: 14.9 mg/L | yield of cephalomannine [3, 10]: 2.2 mg/L | yield of taxol [3, 10]: 16.7 mg/L | cell yield [3, 17]: 10.9 g/L | yield of baccatin III [3, 17]: 3.1 mg/L | yield of cephalomannine [3, 17]: 2.2 mg/L | yield of taxol [3, 17]: 10.9 mg/L | cell yield [3, 11]: 9.7 g/L | yield of baccatin III [3, 11]: 10.6 mg/L | yield of cephalomannine [3, 11]: 2.1 mg/L | yield of taxol [3, 11]: 14.2 mg/L | cell yield [3, 12]: 9.8 g/L | yield of baccatin III [3, 12]: 9.2 mg/L | yield of cephalomannine [3, 12]: 2.0 mg/L | yield of taxol [3, 12]: 13.5 mg/L | cell yield [3, 13]: 7.2 g/L | yield of baccatin III [3, 13]: 1.2 mg/L | yield of cephalomannine [3, 13]: 1.7 mg/L | yield of taxol [3, 13]: 4.5 mg/L | cell yield [3, 14]: 10.0 g/L | yield of baccatin III [3, 14]: 12.9 mg/L | yield of cephalomannine [3, 14]: 2.0 mg/L | yield of taxol [3, 14]: 15.1 mg/L | cell yield [3, 15]: 10.6 g/L | yield of baccatin III [3, 15]: 13.0 mg/L | yield of cephalomannine [3, 15]: 1.9 mg/L | yield of taxol [3, 15]: 12.6 mg/L | cell yield [3, 16]: 5.9 g/L | yield of baccatin III [3, 16]: 1.2 mg/L | yield of cephalomannine [3, 16]: 1.8 mg/L | yield of taxol [3, 16]: 3.1 mg/L | baccatin III leaked in the medium [5]: about 70% | taxol leaked in the medium [5]: about half

COC(=O)C[C@H]1CCC(=O)[C@H]1C/C=C\CCO [methyl tuberonate]
cell yield [1]: 12.2 g/L | yield of baccatin III [1]: 17.4 mg/L | yield of cephalomannine [1]: 3.1 mg/L | yield of taxol [1]: 28.3 mg/L | cell yield [2]: 10.0 g/L | yield of baccatin III [2]: 1.4 mg/L | yield of cephalomannine [2]: 0.5 mg/L | yield of taxol [2]: 3.3 mg/L | cell yield [3, 6]: 14.3 g/L | yield of baccatin III [3, 6]: 0.4 mg/L | yield of cephalomannine [3, 6]: 1.3 mg/L | yield of taxol [3, 6]: 4.6 mg/L | cell yield [3, 7]: 13.5 g/L | yield of baccatin III [3, 7]: 0.5 mg/L | yield of cephalomannine [3, 7]: 1.5 mg/L | yield of taxol [3, 7]: 5.5 mg/L | cell yield [3, 8]: 13.2 g/L | yield of baccatin III [3, 8]: 0.7 mg/L | yield of cephalomannine [3, 8]: 1.8 mg/L | yield of taxol [3, 8]: 6.9 mg/L | cell yield [3, 9]: 13.0 g/L | yield of baccatin III [3, 9]: 0.9 mg/L | yield of cephalomannine [3, 9]: 2.2 mg/L | yield of taxol [3, 9]: 14.8 mg/L | cell yield [3, 10]: 12.9 g/L | yield of baccatin III [3, 10]: 13.5 mg/L | yield of cephalomannine [3, 10]: 2.3 mg/L | yield of taxol [3, 10]: 22.5 mg/L | cell yield [3, 11]: 12.5 g/L | yield of baccatin III [3, 11]: 10.5 mg/L | yield of cephalomannine [3, 11]: 2.1 mg/L | yield of taxol [3, 11]: 15.6 mg/L | cell yield [3, 12]: 12.7 g/L | yield of baccatin III [3, 12]: 12.2 mg/L | yield of cephalomannine [3, 12]: 2.4 mg/L | yield of taxol [3, 12]: 16.5 mg/L | cell yield [3, 13]: 7.1 g/L | yield of baccatin III [3, 13]: 1.0 mg/L | yield of cephalomannine [3, 13]: 1.3 mg/L | yield of taxol [3, 13]: 4.0 mg/L | cell yield [3, 14]: 12.5 g/L | yield of baccatin III [3, 14]: 14.5 mg/L | yield of cephalomannine [3, 14]: 2.2 mg/L | yield of taxol [3, 14]: 21.1 mg/L | cell yield [3, 15]: 11.6 g/L | yield of baccatin III [3, 15]: 15.0 mg/L | yield of cephalomannine [3, 15]: 2.3 mg/L | yield of taxol [3, 15]: 10.6 mg/L | cell yield [3, 16]: 7.5 g/L | yield of baccatin III [3, 16]: 1.2 mg/L | yield of cephalomannine [3, 16]: 1.8 mg/L | yield of taxol [3, 16]: 3.9 mg/L | cell yield [4]: 9.5 g/L | yield of baccatin III [4]: 10.4 mg/L | yield of cephalomannine [4]: 0.5 mg/L | yield of taxol [4]: 5.4 mg/L
